Ki data for 18 compounds are collected here from patent US20210238225A1, “PEPTIDOMIMETIC INHIBITORS OF THE PEPTIDYL-PROLYL CIS/TRANS ISOMERASE (PIN1)” (DANA-FARBER CANCER INSTITUTE, INC., priority 2018, published 2021).

Non-standard residues stand in square brackets, D forms with d. Residues, ends and D or L forms follow the SMILES beside them. *: point of attachment. Ala(4-thiazolyl) = N[C@@H](Cc1cscn1)C(=O)O; Phe(2-Br) = N[C@@H](Cc1ccccc1Br)C(=O)O; Phe(4-F) = N[C@@H](Cc1ccc(F)cc1)C(=O)O; Bta = N[C@@H](Cc1csc2ccccc12)C(=O)O; NH(4-Me-benzyl) = Cc1ccc(CN*)cc1; NMeF = CN[C@@H](Cc1ccccc1)C(=O)O; hPhe = N[C@@H](CCc1ccccc1)C(=O)O; 3Thi = N[C@@H](Cc1ccsc1)C(=O)O; Cit = NC(=O)NCCC[C@H](N)C(=O)O; Pip = O=C(O)[C@@H]1CCCCN1; Piperidide = C1CCN(*)CC1; Acryloyl = C=CC(=O)*; NHcBu = C1CC(N*)C1; NHtBu = CC(C)(C)N*; X6 = CC(Cl)C(=O)*; ClAc = O=C(CCl)*; X1 = O=C(C1CO1)* Some results are limits rather than exact numbers.

The target of one assay is Pin1 (GST-Pin1) (Homo sapiens, UniProt Q13526). Put plainly: Fluorescence polarization (FP) assay, binding to Pin1. The note with it: Ki, μM (FP Assay), competition with fluorescein-labeled peptide probe; 12 hours pre-incubation at 4° C.; Kenakin Ki equation.
Chain of Pin1 (GST-Pin1) (Q13526 whole entry): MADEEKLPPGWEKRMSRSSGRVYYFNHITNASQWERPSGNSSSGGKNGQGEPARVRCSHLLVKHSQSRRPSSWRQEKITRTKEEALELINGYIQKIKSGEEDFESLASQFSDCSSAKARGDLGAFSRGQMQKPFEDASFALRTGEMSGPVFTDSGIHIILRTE
By Ki is commonly meant a measure of affinity in units of concentration, obtained from inhibition or displacement. Consider `COC(=O)CC[C@H](NC(=O)CCl)C(=O)N1CCCC[C@H]1C(=O)N[C@@H](Cc1c[nH]c2ccccc12)C(=O)N[C@@H](Cc1ccccc1Br)C(=O)NCc1ccc(C)cc1` [Compound 11-27, Methyl (S)-5-((S)-2-(((S)-1-(((S)-3-(2-bromophenyl)-1-((4-methylbenzyl)amino)-1-oxopropan-2-yl)amino)-3-(1H-indol-3-yl)-1-oxopropan-2-yl)carbamoyl)piperidin-1-yl)-4-(2-chloroacetamido)-5-oxopentanoate] (ClAc-E(OMe)[Pip]W[Phe(2-Br)]-{NH(4-Me-benzyl)}), for which the Ki was > 10 µM.

Take `COC(=O)CC[C@H](NC(=O)CCl)C(=O)N1CCCC[C@H]1C(=O)N[C@@H](Cc1c[nH]c2ccccc12)C(=O)N[C@@H](Cc1ccsc1)C(=O)NCc1ccc(C)cc1` [Compound 11-29, Methyl (S)-5-((S)-2-(((S)-3-(1H-indol-3-yl)-1-(((S)-1-((4-methylbenzyl)amino)-1-oxo-3-(thiophen-3-yl)propan-2-yl)amino)-1-oxopropan-2-yl)carbamoyl)piperidin-1-yl)-4-(2-chloroacetamido)-5-oxopentanoate] (ClAc-E(OMe)[Pip]W[3Thi]-{NH(4-Me-benzyl)}): the inhibition constant (Ki) stood at 1.01 µM.

`NC(=O)NCCC[C@H](NC(=O)[C@H](Cc1c[nH]c2ccccc12)NC(=O)[C@@H]1CCCCN1C(=O)[C@H](CCc1ccccc1)NC(=O)CCl)C(=O)N1CCCCC1` [Compound 11-40, (S)—N—((S)-3-(1H-Indol-3-yl)-1-oxo-1-(((S)-1-oxo-1-(piperidin-1-yl)-5-ureidopentan-2-yl)amino)propan-2-yl)-1-((S)-2-(2-chloroacetamido)-4-phenylbutanoyl)piperidine-2-carboxamide] (ClAc-[hPhe][Pip]W[Cit]-Piperidide) had a Ki of 0.087 µM.

Staying with this assay, now noted: competition with fluorescein-labeled peptide probe; 12 hours pre-incubation at 4° C.; Kenakin Ki equation; read-out: Ki, μM (FP Assay).
For the compound `COC(=O)CC[C@H](NC(C)=O)C(=O)N1CCCC[C@H]1C(=O)N[C@@H](Cc1c[nH]c2ccccc12)C(=O)N[C@@H](Cc1ccc(F)cc1)C(=O)NCc1ccc(C)cc1` [Compound 11-30, Methyl (S)-4-acetamido-5-((S)-2-(((S)-1-(((S)-3-(4-fluorophenyl)-1-((4-methylbenzyl)-amino)-1-oxopropan-2-yl)amino)-3-(1H-indol-3-yl)-1-oxopropan-2-yl)carbamoyl)piperidin-1-yl)-5-oxopentanoate] (Ac-E(OMe)[Pip]W[Phe(4-F)]-{NH(4-Me-benzyl)}), the Ki is > 10 µM.

Turning to `CC(C)(C)NC(=O)[C@H](CCCNC(N)=O)NC(=O)[C@H](Cc1c[nH]c2ccccc12)NC(=O)[C@@H]1CCCCN1C(=O)[C@H](Cc1ccccc1)NC(=O)CCl` [Compound 11-31, (S)—N—((S)-1-(((S)-1-(tert-Butylamino)-1-oxo-5-ureidopentan-2-yl)amino)-3-(1H-indol-3-yl)-1-oxopropan-2-yl)-1-((2-chloroacetyl)-L-phenylalanyl)piperidine-2-carboxamide] (ClAc-F[Pip]W[Cit]-NHtBu), the Ki came out at 0.023 µM.

Consider `Cc1ccc(CNC(=O)[C@H](Cc2cscn2)NC(=O)[C@H](Cc2c[nH]c3ccccc23)NC(=O)[C@@H]2CCCCN2C(=O)[C@H](Cc2ccccc2)NC(=O)CCl)cc1` [Compound 11-32, (S)—N—((S)-3-(1H-Indol-3-yl)-1-(((S)-1-((4-methylbenzyl)amino)-1-oxo-3-(thiazol-4-yl)propan-2-yl)amino)-1-oxopropan-2-yl)-1-((2-chloroacetyl)-L-phenylalanyl)piperidine-2-carboxamide] (ClAc-F[Pip]W[Ala(4-thiazolyl)]-{NH(4-Me-benzyl)}), for which the inhibition constant Ki came to 0.121 µM.

With `Cc1ccc(CNC(=O)[C@H](CCCNC(N)=O)NC(=O)[C@H](Cc2csc3ccccc23)NC(=O)[C@@H]2CCCCN2C(=O)[C@H](Cc2ccccc2)NC(=O)CCl)cc1` [Compound 11-33, (S)—N—((S)-3-(benzo[6]thiophen-3-yl)-1-(((S)-1-((4-methylbenzyl)amino)-1-oxo-5-ureidopentan-2-yl)amino)-1-oxopropan-2-yl)-1-((2-chloroacetyl)-L-phenylalanyl)-piperidine-2-carboxamide] (ClAc-F[Pip][Bta][Cit]-{NH(4-Me-benzyl)}), the Ki was found to be 0.028 µM.

On to `Cc1ccc(CNC(=O)[C@H](CCCNC(N)=O)NC(=O)[C@H](Cc2c[nH]c3ccccc23)NC(=O)[C@@H]2CCCCN2C(=O)[C@H](Cc2ccccc2)NC(=O)C(C)Cl)cc1` (stereo partly drawn) [Compound 11-34, (2S)—N—((S)-3-(1H-indol-3-yl)-1-(((S)-1-((4-methylbenzyl)amino)-1-oxo-5-ureidopentan-2-yl)amino)-1-oxopropan-2-yl)-1-((2-chloropropanoyl)-L-phenylalanyl)piperidine-2-carboxamide] (X6-F[Pip]W[Cit]-{NH(4-Me-benzyl)}), for which the Ki was > 10 µM.

As to `C=CC(=O)N[C@@H](Cc1ccccc1)C(=O)N1CCCC[C@H]1C(=O)N[C@@H](Cc1c[nH]c2ccccc12)C(=O)N[C@@H](CCCNC(N)=O)C(=O)NCc1ccc(C)cc1` [Compound 11-35, (S)—N—((S)-3-(1H-indol-3-yl)-1-(((S)-1-((4-methylbenzyl)amino)-1-oxo-5-ureidopentan-2-yl)amino)-1-oxopropan-2-yl)-1-(acryloyl-L-phenylalanyl)piperidine-2-carboxamide] (Acryloyl-F[Pip]W[Cit]-{NH(4-Me-benzyl)}), the inhibition constant Ki is > 10 µM.

For the compound `CC(=O)N[C@@H](Cc1ccccc1)C(=O)N1CCCC[C@H]1C(=O)N[C@@H](Cc1c[nH]c2ccccc12)C(=O)N[C@@H](CCCNC(N)=O)C(=O)NCc1ccc(C)cc1` [Compound 11-36, (S)—N—((S)-3-(1H-Indol-3-yl)-1-(((S)-1-((4-methylbenzyl)amino)-1-oxo-5-ureidopentan-2-yl)amino)-1-oxopropan-2-yl)-1-(acetyl-L-phenylalanyl)piperidine-2-carboxamide] (Ac-F[Pip]W[Cit]-{NH(4-Me-benzyl)}), the inhibition constant Ki was > 10 µM.

Regarding `NC(=O)NCCC[C@H](NC(=O)[C@H](Cc1c[nH]c2ccccc12)NC(=O)[C@@H]1CCCCN1C(=O)[C@H](Cc1ccccc1)NC(=O)CCl)C(=O)NC1CCC1` [Compound 11-37, (S)-1-((2-Chloroacetyl)-L-phenylalanyl)-N—((S)-1-(((S)-1-(cyclobutylamino)-1-oxo-5-ureidopentan-2-yl)amino)-3-(1H-indol-3-yl)-1-oxopropan-2-yl)piperidine-2-carboxamide] (ClAc-F[Pip]W[Cit]-NHcBu), the inhibition constant Ki stood at 0.026 µM.

As to `O=C(CCl)N[C@@H](Cc1ccccc1)C(=O)N1CCCC[C@H]1C(=O)N[C@@H](Cc1c[nH]c2ccccc12)C(=O)N[C@@H](Cc1ccccc1)C(=O)N1CCCCC1` [Compound 11-41, (S)—N—((S)-3-(1H-Indol-3-yl)-1-oxo-1-(((S)-1-oxo-3-phenyl-1-(piperidin-1-yl)propan-2-yl)amino)propan-2-yl)-1-((2-chloroacetyl)-L-phenylalanyl)piperidine-2-carboxamide] (ClAc-F[Pip]WF-Piperidide), the inhibitory constant (Ki) stood at 0.151 µM.

For the compound `CN(C(=O)CCl)[C@@H](Cc1ccccc1)C(=O)N1CCCC[C@H]1C(=O)N[C@@H](Cc1csc2ccccc12)C(=O)N[C@@H](CCCNC(N)=O)C(=O)N1CCCCC1` [Compound 11-42, (S)—N—((S)-3-(Benzo[6]thiophen-3-yl)-1-oxo-1-(((S)-1-oxo-1-(piperidin-1-yl)-5-ureidopentan-2-yl)amino)propan-2-yl)-1-(N-(2-chloroacetyl)-N-methyl-L-phenylalanyl)piperidine-2-carboxamide] (ClAc-[NMeF][Pip][Bta][Cit]-Piperidide), the Ki was 0.109 µM.

For `CN(C(=O)CCl)[C@@H](Cc1ccccc1)C(=O)N1CCCC[C@H]1C(=O)N[C@@H](Cc1c[nH]c2ccccc12)C(=O)N[C@@H](Cc1ccc(F)cc1)C(=O)N1CCCCC1` [Compound 11-43, (S)-1-(N-(2-Chloroacetyl)-N-methyl-L-phenylalanyl)-N—((S)-1-(((S)-3-(4-fluorophenyl)-1-oxo-1-(piperidin-1-yl)propan-2-yl)amino)-3-(1H-indol-3-yl)-1-oxopropan-2-yl)piperidine-2-carboxamide] (ClAc-[NMeF][Pip]W[Phe(4-F)]-Piperidide), the inhibition constant Ki was determined as 0.172 µM.

With `CN(C(=O)CCl)[C@@H](Cc1ccccc1)C(=O)N1CCCC[C@H]1C(=O)N[C@@H](Cc1c[nH]c2ccccc12)C(=O)N[C@@H](CCc1ccccc1)C(=O)N1CCCCC1` [Compound 11-44, (S)—N—((S)-3-(1H-Indol-3-yl)-1-oxo-1-(((S)-1-oxo-4-phenyl-1-(piperidin-1-yl)butan-2-yl)amino)propan-2-yl)-1-(N-(2-chloroacetyl)-N-methyl-L-phenylalanyl)piperidine-2-carboxamide] (ClAc-[NMeF][Pip]W[hPhe]-Piperidide), the Ki was 1.5 µM.

In the case of `CN(C(=O)CCl)[C@@H](Cc1ccccc1)C(=O)N1CCCC[C@H]1C(=O)N[C@@H](Cc1c[nH]c2ccccc12)C(=O)N1CCCCC1` [Compound 11-45, (S)—N—((S)-3-(1H-indol-3-yl)-1-oxo-1-(piperidin-1-yl)propan-2-yl)-1-(N-(2-chloroacetyl)-N-methyl-L-phenylalanyl)piperidine-2-carboxamide] (ClAc-[NMeF]-[Pip]-Trp-Piperidide), the Ki was > 1 µM.

With `Cc1ccc(CNC(=O)[C@H](CCCNC(N)=O)NC(=O)[C@H](Cc2c[nH]c3ccccc23)NC(=O)[C@@H]2CCCCN2C(=O)[C@H](Cc2ccccc2)NCC#N)cc1` [Compound 12, (S)—N—((S)-3-(1H-indol-3-yl)-1-(((S)-1-((4-methylbenzyl)amino)-1-oxo-5-ureidopentan-2-yl)amino)-1-oxopropan-2-yl)-1-((cyanomethyl)-L-phenylalanyl)piperidine-2-carboxamide], the inhibition constant Ki was > 10 µM.

Turning to `Cc1ccc(CNC(=O)[C@H](CCCNC(N)=O)NC(=O)[C@H](Cc2c[nH]c3ccccc23)NC(=O)[C@@H]2CCCCN2C(=O)[C@H](Cc2ccccc2)NC(=O)C2CO2)cc1` (stereo partly drawn) [Compound 13, (2S)—N—((S)-3-(1H-Indol-3-yl)-1-(((S)-1-((4-methylbenzyl)amino)-1-oxo-5-ureidopentan-2-yl)amino)-1-oxopropan-2-yl)-1-((oxirane-2-carbonyl)-L-phenylalanyl)piperidine-2-carboxamide] (X1-F[Pip]W[Cit]-{NH(4-Me-benzyl)}), the Ki is 4.43 µM.
